Data: PubChem BioAssay (NCI)
Several values for one entry are separate records, joined by “and”; a condition that tells them apart may be missing. Equal entries are not always repeated.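 Values below derive from 48-hour exposures of cells grown in 96-well plates, with endpoints linearly interpolated between the two concentrations bracketing the appropriate inhibition level. GI50 is the concentration that inhibits growth by half. TGI marks complete inhibition of growth.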

Key:
Experiment in all cases: DTP human tumour cell line panel, 48 h
[1] = tested on: SNB-75 CNS
[2] = tested on: U251 CNS
[3] = tested on: SW-620 colon
[4] = tested on: MDA-MB-231 breast
[5] = tested on: HCT-15 colon
[6] = tested on: SK-MEL-2 melanoma
[7] = tested on: OVCAR-5 ovarian
[8] = tested on: A498 renal
[9] = tested on: RXF 393 renal
[10] = tested on: 786-0 renal

Row | Compound | GI50 [1] | TGI [1] | GI50 [2] | TGI [2] | GI50 [3] | TGI [3] | GI50 [4] | TGI [4] | GI50 [5] | TGI [5] | GI50 [6] | TGI [6] | GI50 [7] | TGI [7] | GI50 [8] | TGI [8] | GI50 [9] | TGI [9] | GI50 [10] | TGI [10]
1 | O=C(OCc1ccc2c(Br)cc(Br)c(O)c2n1)c1cc2ccccc2[nH]1 | 0.328 µM | 1.8 µM | 1.4 µM | 2.91 µM | 0.333 µM | 1.13 µM | 0.963 µM | 2.44 µM | 0.314 µM | 1.03 µM | 1.48 µM | 3.2 µM | 1.24 µM | 2.68 µM | 1.56 µM | 2.96 µM | 0.338 µM | 1.26 µM | 0.851 µM | 2.22 µM
2 | COc1cc(Nc2cnc3ccc(C(F)(F)F)cc3n2)cc(OC)c1OC |  |  |  | > 100 µM |  | > 100 µM |  |  |  | > 100 µM |  | > 100 µM |  | > 100 µM |  |  |  | > 100 µM |  | > 100 µM
3 | CCCCCCCCCCCC[N+]1(CCCCCCCCCCCC)CCCC(C)C1 (configuration not stated) | 0.349 µM | 1.63 µM | 0.327 µM | 1.29 µM | 0.303 µM | 1.33 µM |  |  |  |  |  |  | 1.06 µM | 2.29 µM | 1.26 µM | 2.52 µM | 0.198 µM | 0.894 µM | 0.412 µM | 1.66 µM
4 | CC1=N/C(=C\c2ccc(/C=C3/N=C(C)OC3=O)cc2)C(=O)O1 |  | > 100 µM |  | > 100 µM |  | > 100 µM |  |  |  | > 100 µM |  | > 100 µM |  |  |  | > 100 µM |  | > 100 µM |  | > 100 µM
5 | COCC([C@@H](O)C(O)C(=O)NCC[C@@H](C)c1nc(/C=C/CC2OC3(C[C@H](O)C2C)OC(C(C[C@H](O)C(C)[C@H](O)C(C)/C=C(C)/C(C)=C/C=C/C(C)=C/C#N)OC)[C@@H](OP(=O)(O)O)C3(C)C)co1)N(C)C (some centres not stated) |  | 0.000327 µM |  | 0.000332 µM |  | 0.000327 µM |  | 0.000562 µM |  | 0.000462 µM |  | 0.000333 µM |  | 0.000345 µM |  | 0.00333 µM |  |  |  | 0.000314 µM
6 | O=C(NC1C(=O)NNC1c1cccc([N+](=O)[O-])c1)c1ccccc1 (configuration not stated) |  | > 100 µM |  | > 100 µM |  | > 100 µM |  |  |  |  |  | > 100 µM |  | > 100 µM |  |  |  | > 100 µM |  | > 100 µM
7 | N#CNC(N)=NCc1ccccc1 |  | > 100 µM |  | > 100 µM |  |  |  |  |  | > 100 µM |  | > 100 µM |  | > 100 µM |  | > 100 µM |  |  |  | > 100 µM
8 | COc1cc2oc(-c3ccc(O)cc3)cc(=O)c2c(O)c1C1OC(CO)C(O)C(O)C1O (configuration not stated) |  | > 100 µM |  | > 100 µM |  | > 100 µM |  |  |  | > 100 µM |  | > 100 µM |  | > 100 µM |  | > 100 µM |  |  |  | > 100 µM
9 | Cc1ccc(S(=O)(=O)OCC/C(=C\[Si](C)(C)C)c2ccccc2)cc1 |  | > 100 µM |  | > 100 µM |  | > 100 µM |  |  |  | > 100 µM |  | > 100 µM |  | > 100 µM |  | > 100 µM |  | > 100 µM |  | > 100 µM
10 | O=C(NC12CC3CCC1CC(C3)C2)[C@@H]1CCCN1C(=O)OCc1ccccc1 (some centres not stated) |  | 97.2 µM |  | > 100 µM |  | > 100 µM |  |  |  | > 100 µM |  | > 100 µM |  | > 100 µM |  | > 100 µM |  | 54.6 µM |  | > 100 µM
11 | OCc1cc2c(cn1)[nH]c1ccc(NCc3ccccc3)cc12 |  | 69.7 µM |  | > 100 µM |  | 78.7 µM |  |  |  | > 100 µM |  | > 100 µM |  | > 100 µM |  | 71.7 µM |  | 78.5 µM |  | 58.4 µM
12 | CCCCCCCC(=O)OCC(COC(=O)C(C)(C)C)OC(=O)Cc1ccccc1 (configuration not stated) |  |  |  | > 100 µM |  | > 100 µM |  |  |  | > 100 µM |  |  |  | > 100 µM |  | > 100 µM |  |  |  | > 100 µM
13 | O=C1NC(=O)c2c1n(Cc1ccccc1)c(=O)n2Cc1ccccc1 |  | > 100 µM |  | > 100 µM |  | > 100 µM |  |  |  | > 100 µM |  | > 100 µM |  | > 100 µM |  | 77.9 µM |  | > 100 µM |  | > 100 µM
14 | Cc1ccc2c(c1)CN1c3ccc(C)cc3CN2C1c1ccccc1O |  | 9.08 µM |  | > 100 µM |  | > 100 µM |  |  |  | > 100 µM |  | > 100 µM |  | > 100 µM |  |  |  | 61.2 µM |  | > 100 µM
15 | CCN(CC)CCCNc1ccc(C)c2sc3ccccc3c(=O)c12 | 5.2 µM | 26.1 µM | 0.602 µM | 1.96 µM | 0.393 µM | 1.51 µM | 0.294 µM | 0.863 µM | 0.248 µM | 0.651 µM | 1.66 µM | 3.45 µM | 1.26 µM | 2.76 µM |  |  | 0.446 µM | 1.76 µM | 0.822 µM | 2.18 µM
16 | C[C@]12CCC3[C@@H](CCC45OC4C(=O)CC[C@]35C)C1Cc1cnn(-c3ccc(F)cc3)c1N2 (some centres not stated) |  | > 100 µM |  | 98 µM |  | 97 µM |  |  |  | 33.9 µM |  | > 100 µM |  |  |  |  |  | 87.2 µM |  | 35.2 µM
17 | COC(=O)CCC(NC(=S)N/N=C/c1cccs1)C(=O)OC (configuration not stated) |  | > 100 µM |  | > 100 µM |  | > 100 µM |  |  |  | > 100 µM |  | > 100 µM |  | > 100 µM |  | > 100 µM |  | > 100 µM |  | > 100 µM
18 | O=C(Nc1ccc(N=C=S)cc1Cl)c1cc(Br)cc(Br)c1O |  | > 100 µM |  | 53.1 µM |  | 72.3 µM |  | 46.2 µM |  | 31.3 µM |  | > 100 µM |  | 50.9 µM |  |  |  | > 100 µM |  | 75.2 µM
19 | O=c1cc(O)cc2n1CCC2 |  | > 100 µM |  | > 100 µM |  | > 100 µM |  |  |  | > 100 µM |  | > 100 µM |  | > 100 µM |  | > 100 µM |  | > 100 µM |  | > 100 µM
20 | N#Cc1nc2c(S(=O)(=O)c3ccc(Cl)cc3)c(N)n(Nc3cccc(Cl)c3)c2nc1C#N | 0.0115 µM | 0.059 µM | 0.0294 µM |  | 0.014 µM | 0.0733 µM | 0.0178 µM | 0.0869 µM | 0.0982 µM | > 100 µM | 0.105 µM and 0.0126 µM | 0.387 µM and 0.0857 µM | 0.0219 µM and 0.0224 µM | 0.106 µM and 0.175 µM |  |  |  |  | 0.0389 µM | 
21 | Cc1cc([N+](=O)[O-])c(C)c2c1[nH]c1ccc(Cl)cc12 |  | > 100 µM |  |  |  | > 100 µM |  |  |  | > 100 µM |  | > 100 µM |  | > 100 µM |  |  |  |  |  | > 100 µM
